Data from US20200024278A1, “COMPOSITION COMPRISING ANTIBIOTIC COMPOUND AND AN HETEROCYCLIC COMPOUND AND THEIR USE IN PREVENTING OR TREATING BACTERIAL INFECTIONS” (MUTABILIS, priority 2016, published 2020).

Experiments:
Assay in all cases: MIC, broth microdilution (CLSI), substance alone or ATB combined with compound at 4 or 8 μg/mL
PAE UFR48 = assay type: cell-based, P. aeruginosa; conditions: PAE UFR48
Procedure, shortened: (§1)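 Antibiotic MICs were determined in presence of fixed compound at 4 or 8 μg/mL, and compound MICs alone, by visual growth inhibition. Inoculum 5·10^5 CFU/mL in ca-MHB, incubated 35 °C for 16-20 h per CLSI-M7-A7. Glucose-6-phosphate (25 μg/ml) added when fosfomycin was tested.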

PAE UFR90 = assay type: cell-based, P. aeruginosa; conditions: PAE UFR90
Procedure, shortened: as §1

PAE 105250 = assay type: cell-based, P. aeruginosa; conditions: PAE 105250
Procedure, shortened: as §1

ECO UFR39 = assay type: cell-based, E. coli; conditions: ECO UFR39
Procedure, shortened: as §1

ECO 190317 = assay type: cell-based, E. coli; conditions: ECO 190317
Procedure, shortened: as §1

SPN 49619 = assay type: cell-based, S. pneumoniae; conditions: SPN 49619
Procedure, shortened: as §1

SAU 29213 = assay type: cell-based, S. aureus; conditions: SAU 29213
Procedure, shortened: as §1

ECL P99 = assay type: cell-based, E. cloacae; conditions: ECL P99
Procedure, shortened: as §1

KPN UFR42 = assay type: cell-based, K. pneumoniae; conditions: KPN UFR42
Method: (§2) Compounds of the present invention were assessed against genotyped bacterial strains alone or in combination with an antibacterial. In the assays, MICs of said compounds or combination of antibiotics with fixed concentrations of said compounds (4 or 8 μg/mL) were determined by the broth microdilution method according to the Clinical Laboratory Standards Institute (CLSI-M7-A7). Briefly, compounds alone according to the invention were prepared in DMSO and spotted (2 μL each) on sterile polystyrene plates (Corning, 3788). Combinations of compounds and antibiotics dilutions were prepared in DMSO and spotted (1 μL each) on sterile polystyrene plates (Corning, 3788). Log phase bacterial suspensions were adjusted to a final density of 5·10^5 CFU/mL in cation-adjusted Mueller-Hinton broth (ca-MHB; Becton-Dickinson and Company) and added to each well (98 μL). Assays including Fosfomycin were supplemented with 25 μg/ml of Glucose-6-phosphate. Microplates were incubated for 16-20 h at 35° C. in ambient air. The MIC of the compounds was defined as the lowest concentration of said compounds that prevented bacterial growth as read by visual inspection. The MIC of ATB at each compound concentration was defined as the lowest concentration of ATB that prevented bacterial growth as read by visual inspection.

KPN 6299 = assay type: cell-based, K. pneumoniae
Method: as §2

KPN BAA-1898 = assay type: cell-based, K. pneumoniae; conditions: KPN BAA-1898
Method: as §2

Compound: CO/N=C(\C(=O)N[C@@H]1C(=O)N2C(C(=O)[O-])=C(C[n+]3cccc4c3CCC4)CS[C@H]12)c1csc(N)n1 [CPO]
- MIC ATB alone (PAE UFR48; CPO alone): >32 µg/mL
- MIC ATB alone (PAE UFR48; antibiotic alone): >32 µg/mL
- MIC ATB combined with Example 1 @8 μg/ml (PAE UFR48; with Example 1 @8 μg/ml): <0.031 µg/mL
- MIC ATB combined with Example 9 @4 μg/ml (PAE UFR48; with Example 9 @4 μg/ml): >32 µg/mL
- MIC ATB alone (PAE UFR90; CPO alone): >32 µg/mL
- MIC ATB alone (PAE UFR90; antibiotic alone): >32 µg/mL
- MIC ATB combined with Example 1 @8 μg/ml (PAE UFR90; with Example 1 @8 μg/ml): <0.031 µg/mL
- MIC ATB combined with Example 9 @4 μg/ml (PAE UFR90; with Example 9 @4 μg/ml): 8 µg/mL
- MIC ATB alone (PAE 105250; CPO alone): 32 µg/mL
- MIC ATB alone (PAE 105250; antibiotic alone): 32 µg/mL
- MIC ATB combined with Example 1 @8 μg/ml (PAE 105250; with Example 1 @8 μg/ml): <0.031 µg/mL
- MIC ATB combined with Example 9 @4 μg/ml (PAE 105250; with Example 9 @4 μg/ml): 32 µg/mL
- MIC ATB alone (ECO UFR39; CPO alone): >32 µg/mL
- MIC ATB alone (ECO UFR39; antibiotic alone): >32 µg/mL
- MIC ATB combined with Example 1 @8 μg/ml (ECO UFR39; with Example 1 @8 μg/ml): <0.031 µg/mL
- MIC ATB combined with Example 9 @4 μg/ml (ECO UFR39; with Example 9 @4 μg/ml): <0.031 µg/mL
- MIC ATB alone (ECO 190317; antibiotic alone): >256 µg/mL
- MIC ATB combined with Example 1 @8 μg/ml (ECO 190317; with Example 1 @8 μg/ml): <0.031 µg/mL
- MIC ATB combined with Example 1 @8 μg/ml (ECO 190317; with Example 1 at 8 μg/ml): <0.031 µg/mL
- MIC ATB combined with Example 7 @8 μgml (ECO 190317; with Example 7 at 8 μg/ml): <0.031 µg/mL
- MIC ATB combined with Example 9 @4 μg/ml (ECO 190317; with Example 9 @4 μg/ml): <0.031 µg/mL
- MIC ATB combined with Example 9 @4 μg/ml (ECO 190317; with Example 9 at 4 μg/ml): <0.031 µg/mL
- MIC ATB combined with Example 11 @8 μg/ml (ECO 190317; with Example 11 at 8 μg/ml): <0.031 µg/mL
- MIC ATB combined with Example 12 @8 μg/ml (ECO 190317; with Example 12 at 8 μg/ml): <0.031 µg/mL
- MIC ATB combined with Example 13 @8 μg/ml (ECO 190317; with Example 13 at 8 μg/ml): <0.031 µg/mL
- MIC ATB combined with Example 14 @8 μg/ml (ECO 190317; with Example 14 at 8 μg/ml): <0.031 µg/mL
- MIC ATB combined with Example 15 @4 μgml (ECO 190317; with Example 15 at 4 μg/ml): <=0.031 μg/mL
- MIC ATB combined with Example 16 @4 μg/ml (ECO 190317; with Example 16 at 4 μg/ml): <0.031 µg/mL
- MIC ATB alone (SPN 49619; CPO alone): <=0.031 μg/mL
- MIC ATB alone (SPN 49619; antibiotic alone): <=0.031 μg/mL
- MIC ATB combined with Example 1 @8 μg/ml (SPN 49619; with Example 1 @8 μg/ml): <=0.031 μg/mL
- MIC ATB combined with Example 9 @4 μg/ml (SPN 49619; with Example 9 @4 μg/ml): <=0.031 μg/mL
- MIC ATB alone (SAU 29213; CPO alone): 1 µg/mL
- MIC ATB alone (SAU 29213; antibiotic alone): 1 µg/mL
- MIC ATB combined with Example 1 @8 μg/ml (SAU 29213; with Example 1 @8 μg/ml): 1 µg/mL
- MIC ATB combined with Example 9 @4 μg/ml (SAU 29213; with Example 9 @4 μg/ml): <0.031 µg/mL
- MIC ATB alone (ECL P99; antibiotic alone): 16 µg/mL
- MIC ATB combined with Example 1 @8 μg/ml (ECL P99; with Example 1 @8 μg/ml): <0.031 µg/mL
- MIC ATB combined with Example 1 @8 μg/ml (ECL P99; with Example 1 at 8 μg/ml): <0.031 µg/mL
- MIC ATB combined with Example 7 @8 μgml (ECL P99; with Example 7 at 8 μg/ml): <=0.031 μg/mL
- MIC ATB combined with Example 9 @4 μg/ml (ECL P99; with Example 9 @4 μg/ml): <0.031 µg/mL
- MIC ATB combined with Example 9 @4 μg/ml (ECL P99; with Example 9 at 4 μg/ml): <0.031 µg/mL
- MIC ATB combined with Example 11 @8 μg/ml (ECL P99; with Example 11 at 8 μg/ml): <0.031 µg/mL
- MIC ATB combined with Example 12 @8 μg/ml (ECL P99; with Example 12 at 8 μg/ml): <0.031 µg/mL
- MIC ATB combined with Example 13 @8 μg/ml (ECL P99; with Example 13 at 8 μg/ml): 0.063 µg/mL
- MIC ATB combined with Example 14 @8 μg/ml (ECL P99; with Example 14 at 8 μg/ml): <0.031 µg/mL
- MIC ATB combined with Example 15 @4 μgml (ECL P99; with Example 15 at 4 μg/ml): <0.031 µg/mL
- MIC ATB combined with Example 16 @4 μg/ml (ECL P99; with Example 16 at 4 μg/ml): <0.031 µg/mL
- MIC ATB alone (KPN UFR42; CPO alone): >32 µg/mL
- MIC ATB alone (KPN UFR42; antibiotic alone): >32 µg/mL
- MIC ATB combined with Example 1 @8 μg/ml (KPN UFR42; with Example 1 @8 μg/ml): 16 µg/mL
- MIC ATB combined with Example 9 @4 μg/ml (KPN UFR42; with Example 9 @4 μg/ml): <0.031 µg/mL
- MIC ATB alone (KPN 6299; antibiotic alone): >256 µg/mL
- MIC ATB combined with Example 1 @8 μg/ml (KPN 6299; with Example 1 @8 μg/ml): 0.5 µg/mL
- MIC ATB combined with Example 1 @8 μg/ml (KPN 6299; with Example 1 at 8 μg/ml): 0.5 µg/mL
- MIC ATB combined with Example 7 @8 μgml (KPN 6299; with Example 7 at 8 μg/ml): 0.063 µg/mL
- MIC ATB combined with Example 9 @4 μg/ml (KPN 6299; with Example 9 @4 μg/ml): <=0.031 μg/mL
- MIC ATB combined with Example 9 @4 μg/ml (KPN 6299; with Example 9 at 4 μg/ml): <=0.031 μg/mL
- MIC ATB combined with Example 11 @8 μg/ml (KPN 6299; with Example 11 at 8 μg/ml): <0.031 µg/mL
- MIC ATB combined with Example 12 @8 μg/ml (KPN 6299; with Example 12 at 8 μg/ml): <0.031 µg/mL
- MIC ATB combined with Example 13 @8 μg/ml (KPN 6299; with Example 13 at 8 μg/ml): 0.125 µg/mL
- MIC ATB combined with Example 14 @8 μg/ml (KPN 6299; with Example 14 at 8 μg/ml): <0.031 µg/mL
- MIC ATB combined with Example 15 @4 μgml (KPN 6299; with Example 15 at 4 μg/ml): <=0.031 μg/mL
- MIC ATB combined with Example 16 @4 μg/ml (KPN 6299; with Example 16 at 4 μg/ml): <0.031 µg/mL
- MIC ATB alone (KPN BAA-1898; antibiotic alone): >256 µg/mL
- MIC ATB combined with Example 1 @8 μg/ml (KPN BAA-1898; with Example 1 @8 μg/ml): 0.125 µg/mL
- MIC ATB combined with Example 1 @8 μg/ml (KPN BAA-1898; with Example 1 at 8 μg/ml): 0.125 µg/mL
- MIC ATB combined with Example 7 @8 μgml (KPN BAA-1898; with Example 7 at 8 μg/ml): <0.031 µg/mL
- MIC ATB combined with Example 9 @4 μg/ml (KPN BAA-1898; with Example 9 @4 μg/ml): <0.031 µg/mL
- MIC ATB combined with Example 9 @4 μg/ml (KPN BAA-1898; with Example 9 at 4 μg/ml): <0.031 µg/mL
- MIC ATB combined with Example 11 @8 μg/ml (KPN BAA-1898; with Example 11 at 8 μg/ml): <=0.031 μg/mL
- MIC ATB combined with Example 12 @8 μg/ml (KPN BAA-1898; with Example 12 at 8 μg/ml): <0.031 µg/mL
- MIC ATB combined with Example 13 @8 μg/ml (KPN BAA-1898; with Example 13 at 8 μg/ml): 0.5 µg/mL
- MIC ATB combined with Example 14 @8 μg/ml (KPN BAA-1898; with Example 14 at 8 μg/ml): <0.031 µg/mL
- MIC ATB combined with Example 15 @4 μgml (KPN BAA-1898; with Example 15 at 4 μg/ml): <=0.031 μg/mL
- MIC ATB combined with Example 16 @4 μg/ml (KPN BAA-1898; with Example 16 at 4 μg/ml): <0.031 µg/mL
